Common to all, as to type: biochemical
Holding throughout (settings): mouse brain membrane proteome

One experiment deals with MAGL (Mus musculus (Mouse), UniProt O35678). Briefly: In vitro competitive activity-based protein profiling (FP-Rh), mouse MAGL. The method, then: (§1) In Vitro Competitive Activity-Based Protein Profiling.
(§2) Proteomes (mouse brain membrane fraction or cell lysates) ([…], 1.0 mg/mL total protein concentration) were preincubated with varying concentrations of inhibitors at 37° C. After 30 min, FP-Rh (1.0 μL, 50 μM in DMSO) was added and the mixture was incubated for another 30 min at 37° C. Reactions were quenched with SDS loading buffer (50 μL—4×) and run on SDS-PAGE.

In a further experiment the target is FAAH (Mus musculus (Mouse), UniProt O08914). Briefly: In vitro competitive activity-based protein profiling (FP-Rh), mouse FAAH. The method, then: as §1, §2
The next experiment addresses ABHD6 (Mus musculus (Mouse), UniProt Q8R2Y0). Briefly: In vitro competitive activity-based protein profiling (FP-Rh), mouse ABHD6. The method, then:
as §1, §2

The structures appear in SMILES notation.

Sequence of FAAH (O08914 whole entry): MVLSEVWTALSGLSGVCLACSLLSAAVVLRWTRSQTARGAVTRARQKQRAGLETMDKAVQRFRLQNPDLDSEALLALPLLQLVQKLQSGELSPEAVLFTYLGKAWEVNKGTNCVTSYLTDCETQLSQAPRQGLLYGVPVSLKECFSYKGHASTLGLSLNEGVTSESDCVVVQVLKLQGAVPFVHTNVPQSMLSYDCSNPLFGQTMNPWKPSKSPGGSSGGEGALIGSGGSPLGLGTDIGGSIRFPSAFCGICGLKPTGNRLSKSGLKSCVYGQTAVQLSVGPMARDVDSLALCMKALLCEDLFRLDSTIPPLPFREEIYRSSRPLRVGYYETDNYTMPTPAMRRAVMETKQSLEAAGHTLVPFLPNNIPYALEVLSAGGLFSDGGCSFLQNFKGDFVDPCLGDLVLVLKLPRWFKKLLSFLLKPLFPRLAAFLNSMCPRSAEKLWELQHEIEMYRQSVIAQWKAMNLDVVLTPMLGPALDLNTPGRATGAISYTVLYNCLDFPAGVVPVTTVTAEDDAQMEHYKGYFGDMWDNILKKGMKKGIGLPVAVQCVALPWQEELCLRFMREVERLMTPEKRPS
Sequence of MAGL (O35678 whole entry): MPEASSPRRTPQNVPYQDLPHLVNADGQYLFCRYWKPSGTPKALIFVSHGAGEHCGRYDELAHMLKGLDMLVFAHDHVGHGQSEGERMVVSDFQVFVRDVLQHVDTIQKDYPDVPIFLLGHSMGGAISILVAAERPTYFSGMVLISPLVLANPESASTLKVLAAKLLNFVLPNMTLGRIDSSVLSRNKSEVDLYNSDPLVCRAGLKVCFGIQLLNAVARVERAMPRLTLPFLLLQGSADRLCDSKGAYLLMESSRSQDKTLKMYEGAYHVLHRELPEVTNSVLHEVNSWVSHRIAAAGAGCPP
Sequence of ABHD6 (Q8R2Y0 whole entry): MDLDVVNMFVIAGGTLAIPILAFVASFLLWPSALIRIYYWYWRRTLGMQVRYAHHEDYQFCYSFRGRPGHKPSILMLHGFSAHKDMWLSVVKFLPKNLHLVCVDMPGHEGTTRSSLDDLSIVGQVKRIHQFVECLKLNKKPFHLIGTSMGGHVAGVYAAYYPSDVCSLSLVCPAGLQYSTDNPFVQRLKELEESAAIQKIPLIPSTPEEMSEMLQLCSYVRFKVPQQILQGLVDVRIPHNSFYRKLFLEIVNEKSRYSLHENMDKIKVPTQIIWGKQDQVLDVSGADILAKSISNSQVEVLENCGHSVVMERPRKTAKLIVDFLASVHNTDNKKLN

For orientation: IC50 means the concentration that inhibits the measured activity by half. Take `Cc1cc(N2CCCC2)ccc1CN1CCN(C(=O)OC(C(F)(F)F)C(F)(F)F)CC1` [Example 9u, 1,1,1,3,3,3-hexafluoropropan-2-yl 4-(2-methyl-4-(pyrrolidin-1-yl)benzyl)piperazine-1-carboxylate]: the values for the half-inhibitory concentration (IC50) at MAGL (competitive ABPP (Table 7)), on FAAH (competitive ABPP (Table 7)) and at ABHD6 (competitive ABPP (Table 7)) were 100 to 1000 nM, greater than 6250 nM and greater than 1000 nM, respectively.

In the case of `O=C(OC(C(F)(F)F)C(F)(F)F)N1CCN(Cc2ccc(-n3cccn3)c(F)c2)CC1` [Example 9az, 1,1,1,3,3,3-hexafluoropropan-2-yl 4-(3-fluoro-4-(1H-pyrazol-1-yl)benzyl)piperazine-1-carboxylate], the half-maximal inhibitory concentration (IC50) on MAGL (competitive ABPP (Table 7)) is 100 to 1000 nM; at FAAH (competitive ABPP (Table 7)) it was greater than 10000 nM; on ABHD6 (competitive ABPP (Table 7)), 100 to 1000 nM.

Regarding `O=C(OC(C(F)(F)F)C(F)(F)F)N1CCN(Cc2ccc(N3CCOCC3)cc2Cl)CC1` [Example 9e, 1,1,1,3,3,3-hexafluoropropan-2-yl 4-(2-chloro-4-morpholinobenzyl)piperazine-1-carboxylate], the IC50 was 100 to 1000 nM at MAGL (competitive ABPP (Table 7)), greater than 5000 nM on FAAH (competitive ABPP (Table 7)) and 100 to 1000 nM on ABHD6 (competitive ABPP (Table 7)).

Turning to `O=C(OC(C(F)(F)F)C(F)(F)F)N1CCN(Cc2ccc(N3CCCC3)cc2)CC1` [Example 9g, 1,1,1,3,3,3-hexafluoropropan-2-yl 4-(4-(pyrrolidin-1-yl)benzyl)piperazine-1-carboxylate], the IC50 at MAGL (competitive ABPP (Table 7)) is 100 to 1000 nM; on FAAH (competitive ABPP (Table 7)) it was greater than 10000 nM; at ABHD6 (competitive ABPP (Table 7)) it was greater than 1000 nM.

Regarding `CC(=O)N[C@@H]1CCN(c2cc(Cl)ccc2CN2CCN(C(=O)OC(C(F)(F)F)C(F)(F)F)CC2)C1` [Example 9ba, (R)-1,1,1,3,3,3-hexafluoropropan-2-yl 4-(2-(3-acetamidopyrrolidin-1-yl)-4-chlorobenzyl)piperazine-1-carboxylate], the values for the IC50 on MAGL (competitive ABPP (Table 7)), at FAAH (competitive ABPP (Table 7)) and on ABHD6 (competitive ABPP (Table 7)) were less than 100 nM, greater than 10000 nM and greater than 1000 nM, respectively.

On to `O=C(OC(C(F)(F)F)C(F)(F)F)N1CCN(Cc2cccc(Cl)c2C(=O)N2CCCC2)CC1` [Example 9bg, 1,1,1,3,3,3-hexafluoropropan-2-yl 4-(3-chloro-2-(pyrrolidine-1-carbonyl)benzyl)piperazine-1-carboxylate], for which the 50% inhibitory concentration (IC50) at MAGL (competitive ABPP (Table 7)) is 100 to 1000 nM; on FAAH (competitive ABPP (Table 7)) it was greater than 10000 nM; on ABHD6 (competitive ABPP (Table 7)) it was greater than 1000 nM.

Regarding `O=C(OC(C(F)(F)F)C(F)(F)F)N1CCN(Cc2ccc(-c3ccccc3)cc2F)CC1` [Example 11p, 1,1,1,3,3,3-hexafluoropropan-2-yl 4-[(2-fluoro-4-phenylphenyl)methyl]piperazine-1-carboxylate], the IC50 at MAGL (competitive ABPP (Table 7)) is less than 100 nM; on FAAH (competitive ABPP (Table 7)) it was greater than 10000 nM; at ABHD6 (competitive ABPP (Table 7)) it was greater than 1000 nM.

As to `O=C(OC(C(F)(F)F)C(F)(F)F)N1CCN(Cc2ccc(N3CCCC3)cc2OC(F)(F)F)CC1` [Example 9ap, 1,1,1,3,3,3-hexafluoropropan-2-yl 4-(4-(pyrrolidin-1-yl)-2-(trifluoromethoxy)benzyl)piperazine-1-carboxylate], the IC50 is 100 to 1000 nM at MAGL (competitive ABPP (Table 7)), greater than 10000 nM at FAAH (competitive ABPP (Table 7)) and greater than 1000 nM at ABHD6 (competitive ABPP (Table 7)).

Turning to `CC(C)c1cc(N2CCCC2)ccc1CN1CCN(C(=O)OC(C(F)(F)F)C(F)(F)F)CC1` [Example 9au, 1,1,1,3,3,3-hexafluoropropan-2-yl 4-(2-isopropyl-4-(pyrrolidin-1-yl)benzyl)piperazine-1-carboxylate], the results for the IC50 on MAGL (competitive ABPP (Table 7)), on FAAH (competitive ABPP (Table 7)) and on ABHD6 (competitive ABPP (Table 7)) were greater than 1000 nM, greater than 10000 nM and greater than 1000 nM, respectively.

`O=C(OC(C(F)(F)F)C(F)(F)F)N1CCN(Cc2ccc(N3CCCC3)cc2Cl)CC1` [Example 9ab, 1,1,1,3,3,3-hexafluoropropan-2-yl 4-[[2-chloro-4-(pyrrolidin-1-yl)phenyl]methyl]piperazine-1-carboxylate]: the concentration for half-maximal inhibition (IC50) was 100 to 1000 nM on MAGL (competitive ABPP (Table 7)), greater than 10000 nM on FAAH (competitive ABPP (Table 7)) and greater than 1000 nM at ABHD6 (competitive ABPP (Table 7)).

`O=C(OC(C(F)(F)F)C(F)(F)F)N1CCN(Cc2ccc(N3CCOCC3)c(Cl)c2)CC1` [Example 9h, 1,1,1,3,3,3-hexafluoropropan-2-yl 4-(3-chloro-4-morpholinobenzyl)piperazine-1-carboxylate]: the IC50 is 100 to 1000 nM at MAGL (competitive ABPP (Table 7)), greater than 10000 nM at FAAH (competitive ABPP (Table 7)) and 100 to 1000 nM on ABHD6 (competitive ABPP (Table 7)).

In the case of `O=C(OC(C(F)(F)F)C(F)(F)F)N1CCN(Cc2cccc(F)c2N2CCCC2)CC1` [Example 9as, 1,1,1,3,3,3-hexafluoropropan-2-yl 4-(3-fluoro-2-(pyrrolidin-1-yl)benzyl)piperazine-1-carboxylate], the IC50 at MAGL (competitive ABPP (Table 7)) was 100 to 1000 nM; on FAAH (competitive ABPP (Table 7)), greater than 10000 nM; on ABHD6 (competitive ABPP (Table 7)) it was greater than 1000 nM.

For the compound `O=C(OC(C(F)(F)F)C(F)(F)F)N1CCN(C(c2ccc(-c3ccccc3)cc2)c2ccc3c(c2)OCO3)CC1` (stereo not drawn) [Example 2g], the IC50 at MAGL (competitive ABPP) was greater than 1000 nM; at FAAH (competitive ABPP) it was greater than 10000 nM; on ABHD6 (competitive ABPP), greater than 1000 nM.

As for `CC(=O)N1CCN(c2cc(Cl)ccc2CN2CCN(C(=O)OC(C(F)(F)F)C(F)(F)F)CC2)CC1` [Example 9aw, 1,1,1,3,3,3-hexafluoropropan-2-yl 4-(2-(4-acetylpiperazin-1-yl)-4-chlorobenzyl)piperazine-1-carboxylate], the IC50 at MAGL (competitive ABPP (Table 7)) is 100 to 1000 nM; at FAAH (competitive ABPP (Table 7)), greater than 10000 nM; on ABHD6 (competitive ABPP (Table 7)) it was greater than 1000 nM.

As for `O=C(OC(C(F)(F)F)C(F)(F)F)N1CCN(Cc2ccc(Cl)cc2-n2cccn2)CC1` [Example 9ae, 1,1,1,3,3,3-hexafluoropropan-2-yl 4-(4-chloro-2-(1H-pyrazol-1-yl)benzyl)piperazine-1-carboxylate], the IC50 at MAGL (competitive ABPP (Table 7)) was 100 to 1000 nM; on FAAH (competitive ABPP (Table 7)) it was greater than 10000 nM; at ABHD6 (competitive ABPP (Table 7)), 100 to 1000 nM.

In the case of `O=C(OC(C(F)(F)F)C(F)(F)F)N1CCN(Cc2cccc(N3CCOCC3)c2)CC1` [Example 9ah, 1,1,1,3,3,3-hexafluoropropan-2-yl 4-(3-morpholinobenzyl)piperazine-1-carboxylate], the IC50 is less than 100 nM on MAGL (competitive ABPP (Table 7)), greater than 10000 nM at FAAH (competitive ABPP (Table 7)) and less than 100 nM at ABHD6 (competitive ABPP (Table 7)).

Regarding `CC(C)n1cc(CN2CCN(C(=O)OC(C(F)(F)F)C(F)(F)F)CC2)c(-c2ccccc2)n1` [Example 10h, 1,1,1,3,3,3-hexafluoropropan-2-yl 4-[[3-phenyl-1-(propan-2-yl)-1H-pyrazol-4-yl]methyl]piperazine-1-carboxylate], the IC50 on MAGL (competitive ABPP (Table 7)) was 100 to 1000 nM; on FAAH (competitive ABPP (Table 7)), greater than 10000 nM; at ABHD6 (competitive ABPP (Table 7)) it was 100 to 1000 nM.

Take `O=C(O)C(OC(=O)N1CCN(C(c2ccc(Cl)cc2)c2ccc(Cl)cc2)CC1)C(F)(F)F` (stereo not drawn) [Example 6i, 2-((4-(bis(4-chlorophenyl)methyl)piperazine-1-carbonyl)oxy)-3,3,3-trifluoropropanoic acid]: the figures for the IC50 at MAGL (competitive ABPP), on FAAH (competitive ABPP) and at ABHD6 (competitive ABPP) were greater than 1000 nM, greater than 10000 nM and greater than 1000 nM, respectively.

For the compound `O=C(OC(C(F)(F)F)C(F)(F)F)N1CCN(Cc2ccc(N3CCOCC3)cc2)CC1` [Example 9f, 1,1,1,3,3,3-hexafluoropropan-2-yl 4-(4-morpholinobenzyl)piperazine-1-carboxylate], the IC50 at MAGL (competitive ABPP (Table 7)) is 100 to 1000 nM; on FAAH (competitive ABPP (Table 7)), greater than 10000 nM; at ABHD6 (competitive ABPP (Table 7)), 100 to 1000 nM.

On to `O=C(OC(C(F)(F)F)C(F)(F)F)N1CCN(Cc2ccc(Br)cc2Oc2ccccc2)CC1` [Example 9b, 1,1,1,3,3,3-hexafluoropropan-2-yl 4-(4-bromo-2-phenoxybenzyl)piperazine-1-carboxylate], for which the concentration for half-maximal inhibition (IC50) was less than 100 nM at MAGL (competitive ABPP), greater than 10000 nM on FAAH (competitive ABPP) and 100 to 1000 nM at ABHD6 (competitive ABPP).

For `O=C(OC(C(F)(F)F)C(F)(F)F)N1CCN(Cc2ccc(N3CCOCC3)cc2F)CC1` [Example 9a, 1,1,1,3,3,3-hexafluoropropan-2-yl 4-(2-fluoro-4-morpholinobenzyl)piperazine-1-carboxylate], the results for the IC50 at MAGL (competitive ABPP (Table 7)), at FAAH (competitive ABPP (Table 7)) and on ABHD6 (competitive ABPP (Table 7)) were 100 to 1000 nM, greater than 10000 nM and 100 to 1000 nM, respectively.

Take `Cc1ccc(CN2CCN(C(=O)OC(C(F)(F)F)C(F)(F)F)CC2)cc1` [Example 9w, 1,1,1,3,3,3-hexafluoropropan-2-yl 4-(4-methylbenzyl)piperazine-1-carboxylate]: the IC50 is less than 100 nM on MAGL (competitive ABPP (Table 7)), greater than 1250 nM on FAAH (competitive ABPP (Table 7)) and greater than 1000 nM on ABHD6 (competitive ABPP (Table 7)).

Take `Cc1cc(-c2ccccc2)ccc1CN1CCN(C(=O)OC(C(F)(F)F)C(F)(F)F)CC1` [Example 11q, 1,1,1,3,3,3-hexafluoropropan-2-yl 4-[(2-methyl-4-phenylphenyl)methyl]piperazine-1-carboxylate]: the results for the IC50 on MAGL (competitive ABPP (Table 7)), at FAAH (competitive ABPP (Table 7)) and at ABHD6 (competitive ABPP (Table 7)) were 100 to 1000 nM, greater than 10000 nM and greater than 1000 nM, respectively.

As for `COc1ccc(CN2CCN(C(=O)OC(C(F)(F)F)C(F)(F)F)CC2)cc1` [Example 9v, 1,1,1,3,3,3-hexafluoropropan-2-yl 4-(4-methoxybenzyl)piperazine-1-carboxylate], the IC50 is less than 100 nM on MAGL (competitive ABPP (Table 7)), greater than 6250 nM on FAAH (competitive ABPP (Table 7)) and 100 to 1000 nM on ABHD6 (competitive ABPP (Table 7)).

`O=C(OC(C(F)(F)F)C(F)(F)F)N1CCN(Cc2ccc(Cl)cc2-n2cc(Cl)cn2)CC1` [Example 9ai, 1,1,1,3,3,3-hexafluoropropan-2-yl 4-(4-chloro-2-(4-chloro-1H-pyrazol-1-yl)benzyl)piperazine-1-carboxylate]: the IC50 is less than 100 nM at MAGL (competitive ABPP (Table 7)), greater than 10000 nM at FAAH (competitive ABPP (Table 7)) and 100 to 1000 nM on ABHD6 (competitive ABPP (Table 7)).

Regarding `CN(C)C(=O)c1cc(-c2ccccc2)ccc1CN1CCN(C(=O)OC(C(F)(F)F)C(F)(F)F)CC1` [Example 11x, 1,1,1,3,3,3-hexafluoropropan-2-yl 4-[[2-(dimethylcarbamoyl)-4-phenylphenyl]methyl]piperazine-1-carboxylate], the values for the IC50 on MAGL (competitive ABPP (Table 7)), on FAAH (competitive ABPP (Table 7)) and on ABHD6 (competitive ABPP (Table 7)) were 100 to 1000 nM, greater than 10000 nM and greater than 1000 nM, respectively.

For the compound `O=C(OC(C(F)(F)F)C(F)(F)F)N1CCN(Cc2ccc(C(=O)N3CCC3)cc2Cl)CC1` [Example 9be, 1,1,1,3,3,3-hexafluoropropan-2-yl 4-(4-(azetidine-1-carbonyl)-2-chlorobenzyl)piperazine-1-carboxylate], the figures for the IC50 at MAGL (competitive ABPP (Table 7)), at FAAH (competitive ABPP (Table 7)) and on ABHD6 (competitive ABPP (Table 7)) were 100 to 1000 nM, greater than 10000 nM and 100 to 1000 nM, respectively.
